Assay results reported in patent publication US20210261642A1, “SOLUBILITY OF GLP-1 PEPTIDE” (Novo Nordisk A/S, priority 2017, published 2021).

Assay: Assay (I): Determination of Solubility (96-well plate, pH 3.0-11.0, organic solvent 0-70% w/w, UV absorption at 280 nm)
Type: physicochemical
Conditions: Method 1
Description: Assay (I): Determination of Solubility
96-Well Plate Preparation
96-well plates containing target peptide in a solid form were prepared in one of two ways:
Method 1 (evaporation): Addition of 100 μl stock solution of said peptide at a concentration of 4-6 mg/ml to each well of a 96-well half area plate (150 μl well size). Subsequently the solvent was evaporated by applying a vacuum until the solvent was completely removed.
Method 2 (precipitation): Addition of a certain volume of a stock solution of said peptide containing to each well of a 96-well half area plate followed by the addition of a certain volume of concentrated phosphoric acid to obtain a pH of 4.6 followed by addition of a certain volume of ethanol resulting in a final ethanol concentration of 20% v/v. Subsequently the plate was stored at 4° C. for 1 h and then centrifuged at 4,000 rpm for 20 min. Finally the supernatant was removed. The concentration of the stock solution was chosen in a way that the final amount of peptide after supernatant removal was >0.4 mg per well.
In both cases the stock solution was prepared by adding de-ionized water to a certain amount of powder of said peptide followed by a stepwise addition of small amounts of a concentrated sodium hydroxide solution until said peptide was completely in solution.
To determine solubility of a target peptide at different pH and organic solvent concentrations, two different buffer systems were used in independent experiments to cover the whole range from pH 3.0 to pH 11.0. Buffer system 1 covers pH 3.0-7.5 and buffer system 2 covers pH 7.5-11.0. For each buffer system 96 different solvent compositions were premixed in the following way: • 1. A low pH buffer (adjusted to either pH 3.0 or pH 7.5) and a high pH buffer (adjusted to either pH 7.5 or pH 11.0) were mixed at 8 different ratios to obtain values between pH 3.0 and pH 7.5 or pH 7.5 and pH 11.0, respectively. The total volume after mixing was 300 μl. • 2. 12 different amounts of organic solvent were then added to these buffers to obtain organic solvent (e.g. ethanol) concentrations between 0 and 70% w/w. • 3. Water was then added to obtain a total weight of 1.0 g of solvent in each well.
After preparing the 96 different solvent systems, 100 μl of each system was transferred to the 96-well plate containing the solid form of the target peptide (prepared as described in the section “96-well plate preparation”). The plate was then stored at a given temperature (between 5° C. and 70° C.) for a given time on a rotating shaker set to 400 rpm. At regular time intervals the plate was centrifuged (4,000 rpm for 10 min) and a 10 μl sample was taken from each well. The samples were then analysed by UV absorption at 280 nm for peptide quantification. Peptide concentration results are given as UV absorption at 280 nm of the sample subtracted UV absorption at 280 nm of a well comprising 10 μl water.
The buffers used were as follows: • Buffer system 1 (for the pH range from pH 3.0-7.5)
• Buffer system 2 (for the pH ranae from pH 7.5-11.0)
Solubility of liraglutide was determined using Assay (I) described herein. Liraglutide was prepared using Method 1 (evaporation) or Method 2 (precipitation) as described in subsection “96-well plate preparation”.

Peptide concentration after 5 min (MeCN 31.8% w/w, pH 10.0, 5° C.): 1.9 mg/mL
Peptide concentration after 180 min (MeCN 31.8% w/w, pH 10.0, 5° C.): >4.0 mg/mL
Peptide concentration after 24 h (MeCN 31.8% w/w, pH 10.0, 5° C.): 2.8 mg/mL
Peptide concentration after 5 min (MeCN 31.8% w/w, pH 10.5, 5° C.): 1.3 mg/mL
Peptide concentration after 180 min (MeCN 31.8% w/w, pH 10.5, 5° C.): 3.9 mg/mL
Peptide concentration after 24 h (MeCN 31.8% w/w, pH 10.5, 5° C.): 3.6 mg/mL
Peptide concentration after 5 min (MeCN 31.8% w/w, pH 11.0, 5° C.): 0.8 mg/mL
Peptide concentration after 180 min (MeCN 31.8% w/w, pH 11.0, 5° C.): 3.0 mg/mL
Peptide concentration after 24 h (MeCN 31.8% w/w, pH 11.0, 5° C.): >4.0 mg/mL
Peptide concentration after 5 min (MeCN 38.2% w/w, pH 8.0, 5° C.): 0.8 mg/mL
Peptide concentration after 180 min (MeCN 38.2% w/w, pH 8.0, 5° C.): 3.2 mg/mL
Peptide concentration after 24 h (MeCN 38.2% w/w, pH 8.0, 5° C.): >4.0 mg/mL
Peptide concentration after 5 min (MeCN 38.2% w/w, pH 8.5, 5° C.): 0.8 mg/mL
Peptide concentration after 180 min (MeCN 38.2% w/w, pH 8.5, 5° C.): 2.9 mg/mL
Peptide concentration after 24 h (MeCN 38.2% w/w, pH 8.5, 5° C.): >4.0 mg/mL
Peptide concentration after 5 min (MeCN 38.2% w/w, pH 9.0, 5° C.): 0.4 mg/mL
Peptide concentration after 180 min (MeCN 38.2% w/w, pH 9.0, 5° C.): 2.0 mg/mL
Peptide concentration after 24 h (MeCN 38.2% w/w, pH 9.0, 5° C.): >4.0 mg/mL
Peptide concentration after 5 min (MeCN 38.2% w/w, pH 9.5, 5° C.): 1.1 mg/mL
Peptide concentration after 180 min (MeCN 38.2% w/w, pH 9.5, 5° C.): 3.9 mg/mL
Peptide concentration after 24 h (MeCN 38.2% w/w, pH 9.5, 5° C.): 4.0 mg/mL
Peptide concentration after 5 min (MeCN 38.2% w/w, pH 10.0, 5° C.): 1.5 mg/mL
Peptide concentration after 180 min (MeCN 38.2% w/w, pH 10.0, 5° C.): >4.0 mg/mL
Peptide concentration after 24 h (MeCN 38.2% w/w, pH 10.0, 5° C.): >4.0 mg/mL
Peptide concentration after 5 min (MeCN 38.2% w/w, pH 10.5, 5° C.): 1.2 mg/mL
Peptide concentration after 180 min (MeCN 38.2% w/w, pH 10.5, 5° C.): 3.2 mg/mL
Peptide concentration after 24 h (MeCN 38.2% w/w, pH 10.5, 5° C.): 2.1 mg/mL
Peptide concentration after 5 min (MeCN 38.2% w/w, pH 11.0, 5° C.): 0.6 mg/mL
Peptide concentration after 180 min (MeCN 38.2% w/w, pH 11.0, 5° C.): 2.7 mg/mL
Peptide concentration after 24 h (MeCN 38.2% w/w, pH 11.0, 5° C.): >4.0 mg/mL
Peptide concentration after 5 min (MeCN 44.5% w/w, pH 8.0, 5° C.): 0.7 mg/mL
Peptide concentration after 180 min (MeCN 44.5% w/w, pH 8.0, 5° C.): 2.8 mg/mL
Peptide concentration after 24 h (MeCN 44.5% w/w, pH 8.0, 5° C.): >4.0 mg/mL
Peptide concentration after 5 min (MeCN 44.5% w/w, pH 8.5, 5° C.): 1.1 mg/mL
Peptide concentration after 180 min (MeCN 44.5% w/w, pH 8.5, 5° C.): 3.3 mg/mL
Peptide concentration after 24 h (MeCN 44.5% w/w, pH 8.5, 5° C.): >4.0 mg/mL
Peptide concentration after 5 min (MeCN 44.5% w/w, pH 9.0, 5° C.): 1.7 mg/mL
Peptide concentration after 180 min (MeCN 44.5% w/w, pH 9.0, 5° C.): 2.7 mg/mL
Peptide concentration after 24 h (MeCN 44.5% w/w, pH 9.0, 5° C.): >4.0 mg/mL
Peptide concentration after 5 min (MeCN 44.5% w/w, pH 9.5, 5° C.): 1.1 mg/mL
Peptide concentration after 180 min (MeCN 44.5% w/w, pH 9.5, 5° C.): 3.7 mg/mL
Peptide concentration after 24 h (MeCN 44.5% w/w, pH 9.5, 5° C.): 1.3 mg/mL
Peptide concentration after 5 min (MeCN 44.5% w/w, pH 10.0, 5° C.): 1.3 mg/mL
Peptide concentration after 180 min (MeCN 44.5% w/w, pH 10.0, 5° C.): 3.7 mg/mL
Peptide concentration after 24 h (MeCN 44.5% w/w, pH 10.0, 5° C.): >4.0 mg/mL
Peptide concentration after 5 min (MeCN 44.5% w/w, pH 10.5, 5° C.): 0.9 mg/mL
Peptide concentration after 180 min (MeCN 44.5% w/w, pH 10.5, 5° C.): 2.9 mg/mL
Peptide concentration after 24 h (MeCN 44.5% w/w, pH 10.5, 5° C.): >4.0 mg/mL
Peptide concentration after 5 min (MeCN 44.5% w/w, pH 11.0, 5° C.): 0.8 mg/mL
Peptide concentration after 180 min (MeCN 44.5% w/w, pH 11.0, 5° C.): 2.9 mg/mL
Peptide concentration after 24 h (MeCN 44.5% w/w, pH 11.0, 5° C.): >4.0 mg/mL
Peptide concentration after 5 min (MeCN 50.9% w/w, pH 8.0, 5° C.): 0.6 mg/mL
SMILES: CCCCCCCCCCCCCCCC(=O)N[C@@H](CCC(=O)NCCCC[C@H](NC(=O)[C@H](C)NC(=O)[C@H](C)NC(=O)[C@H](CCC(N)=O)NC(=O)CNC(=O)[C@H](CCC(=O)O)NC(=O)[C@H](CC(C)C)NC(=O)[C@H](Cc1ccc(O)cc1)NC(=O)[C@H](CO)NC(=O)[C@H](CO)NC(=O)[C@@H](NC(=O)[C@H](CC(=O)O)NC(=O)[C@H](CO)NC(=O)[C@@H](NC(=O)[C@H](Cc1ccccc1)NC(=O)[C@@H](NC(=O)CNC(=O)[C@H](CCC(=O)O)NC(=O)[C@H](C)NC(=O)[C@@H](N)Cc1cnc[nH]1)[C@@H](C)O)[C@@H](C)O)C(C)C)C(=O)N[C@@H](CCC(=O)O)C(=O)N[C@@H](Cc1ccccc1)C(=O)N[C@H](C(=O)N[C@@H](C)C(=O)N[C@@H](Cc1c[nH]c2ccccc12)C(=O)N[C@@H](CC(C)C)C(=O)N[C@H](C(=O)N[C@@H](CCCNC(=N)N)C(=O)NCC(=O)N[C@@H](CCCNC(=N)N)C(=O)NCC(=O)O)C(C)C)[C@@H](C)CC)C(=O)O [liraglutide, Arg34,Lys26-(N-epsilon-(gamma-L-glutamyl(N-alfa-hexadecanoyl)))-GLP-1(7-37)]
